Data taken from patent publication US8758816B2, “Compositions comprising azelastine and methods of use thereof” (priority 2004, dated 2014).
Counter-ions that a name gives are not always drawn.

System: patients with seasonal allergic rhinitis (SAR)
Assay: MP 428 two-week randomized double-blind study: Total Nasal Symptom Score (TNSS), change from baseline
Format: in vivo, human
Set-up: key to Change from Baseline in AM TNSS, Mean / Change from Baseline in AM TNSS, LS Mean / Change from Baseline in AM TNSS, Median: TNSS sum of 4 symptoms each 0-3 (0=none, 3=severe); change from baseline
Protocol: A two-week, randomized, double-blind study, which evaluated the effects of the co-administration of ASTELIN® (azelastine hydrochloride (HCl)) and FLONASE® (fluticasone propionate) compared to either product alone in patients with seasonal allergic rhinitis (SAR) was conducted during the 2006 Texas mountain cedar season. After a 5-day placebo lead-in period, 151 patients with moderate-to-severe allergic rhinitis symptoms were randomized to either: (1) (49 total patients) ASTELIN® (azelastine hydrochloride (HCl)) plus placebo saline nasal spray 2 sprays per nostril, 15 minutes apart, twice daily (AM & PM); (2) (50 total patients) FLONASE® (fluticasone propionate) plus placebo saline nasal spray, 2 sprays per nostril, 15 minutes apart, once daily (AM) and two sessions of placebo saline nasal spray, 2 sprays per nostril, 15 minutes apart (PM); or (3) (52 total patients) the co-administration of ASTELIN® (azelastine hydrochloride (HCl)) 2 sprays per nostril plus FLONASE® (fluticasone propionate) 2 sprays per nostril (AM), 15 minutes apart, and ASTELIN® (azelastine hydrochloride (HCl)) 2 sprays per nostril plus placebo saline nasal spray, 15 minutes apart, (PM) for a 2-week double-blind treatment period.
The primary efficacy variable was the change from baseline in the Total Nasal Symptom Score (TNSS), which comprised sneezing, itchy nose, runny nose, and nasal congestion (individual symptoms scores were assigned a value between 0 and 3, where 0=no symptoms and 3=severe symptoms). This study was not statistically designed to assess the differences between ASTELIN® and FLONASE®.

[1] = Day 9, Intent-to-Treat Population
[2] = Day 10, Intent-to-Treat Population
[3] = Day 10, Per-Protocol Population
[4] = Day 11, Intent-to-Treat Population
[5] = Day 11, Per-Protocol Population
[6] = Day 12, Intent-to-Treat Population

CN1CCCC(n2nc(Cc3ccc(Cl)cc3)c3ccccc3c2=O)CC1 (racemic) [Azelastine, (±)-1-(2H)-phthalazinone, 4-[(4-chlorophenyl)methyl]-2-(hexahydro-1-methyl-1H-azepin-4-yl)-, mono-hydrochloride]
Change from Baseline in AM TNSS, Median [1]: −2.00
Change from Baseline in AM and PM Combined TNSS, Mean [1]: −5.38
Change from Baseline in AM and PM Combined TNSS, Median [1]: −3.83
Change from Baseline in PM TNSS, LS Mean [1]: −2.78
Change from Baseline in PM TNSS, Mean [1]: −2.86
Change from Baseline in PM TNSS, Median [1]: −2.33
Percent Change from Baseline in AM TNSS, LS Mean [1]: −26.38%
Percent Change from Baseline in AM TNSS, Mean [1]: −26.20%
Percent Change from Baseline in AM TNSS, Median [1]: −22.22%
Percent Change from Baseline in AM and PM Combined TNSS, LS Mean [1]: −27.79%
Percent Change from Baseline in AM and PM Combined TNSS, Mean [1]: −27.72%
Percent Change from Baseline in AM and PM Combined TNSS, Median [1]: −19.35%
Percent Change from Baseline in PM TNSS, LS Mean [1]: −28.94%
Percent Change from Baseline in PM TNSS, Mean [1]: −28.91%
Percent Change from Baseline in PM TNSS, Median [1]: −25.00%
Change from Baseline in AM and PM Combined TNSS, LS Mean (Day 9, Intent-to-Treat Population, ANCOVA model): −5.36
Change from Baseline in AM and PM Combined TNSS, LS Mean (Day 9, Per-Protocol Population): −5.32
Change from Baseline in AM and PM Combined TNSS, Mean (Day 9, Per-Protocol Population): −5.38
Change from Baseline in AM and PM Combined TNSS, Median (Day 9, Per-Protocol Population): −3.83
Percent Change from Baseline in AM and PM Combined TNSS, LS Mean (Day 9, Per-Protocol Population): −27.68%
Percent Change from Baseline in AM and PM Combined TNSS, Mean (Day 9, Per-Protocol Population): −27.72%
Percent Change from Baseline in AM and PM Combined TNSS, Median (Day 9, Per-Protocol Population): −19.35%
Change from Baseline in AM TNSS, LS Mean [2]: −2.29
Change from Baseline in AM TNSS, Mean [2]: −2.27
Change from Baseline in AM TNSS, Median [2]: −2.17
Change from Baseline in AM and PM Combined TNSS, Mean [2]: −5.36
Change from Baseline in AM and PM Combined TNSS, Median [2]: −5.33
Change from Baseline in PM TNSS, LS Mean [2]: −3.01
Change from Baseline in PM TNSS, Mean [2]: −3.08
Change from Baseline in PM TNSS, Median [2]: −3.00
Percent Change from Baseline in AM TNSS, LS Mean [2]: −23.62%
Percent Change from Baseline in AM TNSS, Mean [2]: −23.81%
Percent Change from Baseline in AM TNSS, Median [2]: −23.64%
Percent Change from Baseline in AM and PM Combined TNSS, LS Mean [2]: −27.60%
Percent Change from Baseline in AM and PM Combined TNSS, Mean [2]: −27.81%
Percent Change from Baseline in AM and PM Combined TNSS, Median [2]: −28.93%
Percent Change from Baseline in PM TNSS, LS Mean [2]: −31.30%
Percent Change from Baseline in PM TNSS, Mean [2]: −31.29%
Percent Change from Baseline in PM TNSS, Median [2]: −33.33%
Change from Baseline in AM and PM Combined TNSS, LS Mean (Day 10, Intent-to-Treat Population, ANCOVA model): −5.29
Change from Baseline in AM and PM Combined TNSS, LS Mean [3]: −5.25
Change from Baseline in AM and PM Combined TNSS, Mean [3]: −5.36
Change from Baseline in AM and PM Combined TNSS, Median [3]: −5.33
Percent Change from Baseline in AM and PM Combined TNSS, LS Mean [3]: −27.49%
Percent Change from Baseline in AM and PM Combined TNSS, Mean [3]: −27.81%
Percent Change from Baseline in AM and PM Combined TNSS, Median [3]: −28.93%
Change from Baseline in AM TNSS, LS Mean [4]: −2.53
Change from Baseline in AM TNSS, Mean [4]: −2.48
Change from Baseline in AM TNSS, Median [4]: −2.00
Change from Baseline in AM and PM Combined TNSS, Mean [4]: −5.77
Change from Baseline in AM and PM Combined TNSS, Median [4]: −4.70
Change from Baseline in PM TNSS, LS Mean [4]: −3.20
Change from Baseline in PM TNSS, Mean [4]: −3.29
Change from Baseline in PM TNSS, Median [4]: −3.33
Percent Change from Baseline in AM TNSS, LS Mean [4]: −25.86%
Percent Change from Baseline in AM TNSS, Mean [4]: −25.65%
Percent Change from Baseline in AM TNSS, Median [4]: −19.40%
Percent Change from Baseline in AM and PM Combined TNSS, LS Mean [4]: −29.24%
Percent Change from Baseline in AM and PM Combined TNSS, Mean [4]: −29.42%
Percent Change from Baseline in AM and PM Combined TNSS, Median [4]: −26.11%
Percent Change from Baseline in PM TNSS, LS Mean [4]: −32.80%
Percent Change from Baseline in PM TNSS, Mean [4]: −32.77%
Percent Change from Baseline in PM TNSS, Median [4]: −33.96%
Change from Baseline in AM and PM Combined TNSS, LS Mean (Day 11, Intent-to-Treat Population, ANCOVA model): −5.70
Change from Baseline in AM and PM Combined TNSS, LS Mean [5]: −5.64
Change from Baseline in AM and PM Combined TNSS, Mean [5]: −5.77
Change from Baseline in AM and PM Combined TNSS, Median [5]: −4.70
Percent Change from Baseline in AM and PM Combined TNSS, LS Mean [5]: −29.05%
Percent Change from Baseline in AM and PM Combined TNSS, Mean [5]: −29.42%
Percent Change from Baseline in AM and PM Combined TNSS, Median [5]: −26.11%
Change from Baseline in AM TNSS, LS Mean [6]: −2.60
Change from Baseline in AM TNSS, Mean [6]: −2.58
Change from Baseline in AM TNSS, Median [6]: −2.50
Change from Baseline in AM and PM Combined TNSS, Mean [6]: −5.54
Change from Baseline in AM and PM Combined TNSS, Median [6]: −5.00
Change from Baseline in PM TNSS, LS Mean [6]: −2.85
Change from Baseline in PM TNSS, Mean [6]: −2.96
Change from Baseline in PM TNSS, Median [6]: −2.40
Percent Change from Baseline in AM TNSS, LS Mean [6]: −26.61%
Percent Change from Baseline in AM TNSS, Mean [6]: −26.72%
Percent Change from Baseline in AM TNSS, Median [6]: −26.32%
Percent Change from Baseline in AM and PM Combined TNSS, LS Mean [6]: −27.99%
Percent Change from Baseline in AM and PM Combined TNSS, Mean [6]: −28.25%
Percent Change from Baseline in AM and PM Combined TNSS, Median [6]: −25.86%
Percent Change from Baseline in PM TNSS, LS Mean [6]: −29.18%
Percent Change from Baseline in PM TNSS, Mean [6]: −29.44%
